Measurements published in patent publication US9174994B2, “Enhanced treatment regimens using mTor inhibitors” (INTELLIKINE LLC, priority 2011, dated 2015).

Assay: Phase I clinical trial: treatment-emergent adverse events (patients, n (%)), dose limiting toxicity, MTD
Assay type: in vivo
[1] = Table 8: Total QD Dosing (N = 25)
[2] = Table 8: Total QDx3d QW (N = 14)

Experimental: Safety, maximum tolerated dose (MTD), pharmacokinetics (PK) and preliminary antitumor activity were evaluated.
Pharmacodynamic (PD) endpoints were evaluated in surrogate (peripheral blood cells [PBCs], skin) and tumor tissues for the phosphorylation of TORC1-dependent markers (4EBP1/S6), and TORC2-dependent markers (AKT/PRAS40).

## CC(C)n1nc(-c2ccc3oc(N)nc3c2)c2c(N)ncnc21 [compound A]
Table 8: Total (N = 60)
  Eye infection: 1 (2%)
  Fatigue: 1 (2%)
  Gastritis: 1 (2%)
  Gravitational oedema: 1 (2%)
  Headache: 1 (2%)
  Hyperbilirubinaemia: 1 (2%)
  Hypertransaminasaemia: 1 (2%)
  Hypertriglyceridaemia: 1 (2%)
  Hypocalcaemia: 1 (2%)
  Hypomagnesaemia: 1 (2%)
  Hypotension: 1 (2%)
  Insomnia: 1 (2%)
  Low fever: 1 (2%)
  Malaise: 1 (2%)
  Nausea: 1 (2%)
  Oral discomfort: 1 (2%)
  Orthostatic hypotension: 1 (2%)
  Palmar-plantar erythrodysaesthesia syndrome: 1 (2%)
  Panniculitis: 1 (2%)
  Platelet count decreased: 1 (2%)
  Polyuria: 1 (2%)
  Pyrexia: 1 (2%)
  Rash: 1 (2%)
  Rash macular: 1 (2%)
  Skin discolouration: 1 (2%)
  Skin exfoliation: 1 (2%)
  Urinary tract infection: 1 (2%)
  Urine tract infection: 1 (2%)
  Vomiting: 1 (2%)
  WEAKNESS: 1 (2%)
  Weight decreased: 1 (2%)
[1]
  Catheter site inflammation: 0 (0%)
  Catheter site pain: 0 (0%)
  Coagulopathy: 1 (4%)
  Confusional state: 1 (4%)
  Cough: 1 (4%)
  DIARRHEA: 0 (0%)
  Dizziness: 1 (4%)
  Dyspnoea exertional: 1 (4%)
  Eye infection: 1 (4%)
  Fatigue: 0 (0%)
  Gastritis: 1 (4%)
  Gravitational oedema: 1 (4%)
  Headache: 0 (0%)
  Hyperbilirubinaemia: 0 (0%)
  Hypertransaminasaemia: 0 (0%)
  Hypertriglyceridaemia: 0 (0%)
  Hypocalcaemia: 1 (4%)
  Hypomagnesaemia: 0 (0%)
  Hypotension: 0 (0%)
  Insomnia: 1 (4%)
  Low fever: 0 (0%)
  Malaise: 0 (0%)
  Nausea: 0 (0%)
  Oral discomfort: 0 (0%)
  Orthostatic hypotension: 1 (4%)
  Palmar-plantar erythrodysaesthesia syndrome: 0 (0%)
  Panniculitis: 1 (4%)
  Platelet count decreased: 0 (0%)
  Polyuria: 1 (4%)
  Pyrexia: 0 (0%)
  Rash: 0 (0%)
  Rash macular: 0 (0%)
  Skin discolouration: 1 (4%)
  Skin exfoliation: 1 (4%)
  Urinary tract infection: 0 (0%)
  Urine tract infection: 0 (0%)
  Vomiting: 0 (0%)
  WEAKNESS: 0 (0%)
  Weight decreased: 1 (4%)
[2]
  Catheter site inflammation: 1 (7%)
  Catheter site pain: 1 (7%)
  Coagulopathy: 0 (0%)
  Confusional state: 0 (0%)
  Cough: 0 (0%)
  DIARRHEA: 0 (0%)
  Dizziness: 0 (0%)
  Dyspnoea exertional: 0 (0%)
  Eye infection: 0 (0%)
  Fatigue: 1 (7%)
  Gastritis: 0 (0%)
  Gravitational oedema: 0 (0%)
  Headache: 1 (7%)
  Hyperbilirubinaemia: 1 (7%)
  Hypertransaminasaemia: 1 (7%)
  Hypertriglyceridaemia: 1 (7%)
  Hypocalcaemia: 0 (0%)
  Hypomagnesaemia: 1 (7%)
  Hypotension: 1 (7%)
  Insomnia: 0 (0%)
  Low fever: 1 (7%)
  Malaise: 0 (0%)
  Nausea: 0 (0%)
  Oral discomfort: 0 (0%)
  Orthostatic hypotension: 0 (0%)
  Palmar-plantar erythrodysaesthesia syndrome: 1 (7%)
  Panniculitis: 0 (0%)
  Platelet count decreased: 1 (7%)
  Polyuria: 0 (0%)
  Pyrexia: 1 (7%)
  Rash: 0 (0%)
  Rash macular: 1 (7%)
  Skin discolouration: 0 (0%)
  Skin exfoliation: 0 (0%)
  Urinary tract infection: 1 (7%)
  Urine tract infection: 0 (0%)
  Vomiting: 0 (0%)
  WEAKNESS: 0 (0%)
